Experiments:
Assay type in all cases: in vivo
[1] = system: acetaminophen (APAP) in mice; assay: Hepatoprotective activity, prophylactic study, acetaminophen (APAP) after diethyl-ether
[2] = system: acetaminophen (APAP) in mice; assay: Hepatoprotective activity, curative study, acetaminophen (APAP) after diethyl-ether
[3] = system: D-Galactosamine (Gal N) induced hepatic injury in rats; assay: Hepatoprotective activity, prophylactic study, D-Galactosamine; settings: 12.5 mg/kg p.o. + Gal N, prophylactic
[4] = 12.5 mg/kg p.o. + APAP, prophylactic
[5] = 25 mg/kg p.o. + APAP, prophylactic
[6] = 50 mg/kg p.o. + APAP, prophylactic
[7] = 100 mg/kg p.o. + APAP, prophylactic
[8] = TCA alone 100 mg/kg p.o., no APAP, prophylactic study
[9] = 12.5 mg/kg p.o. + APAP, curative
[10] = 100 mg/kg p.o. + APAP, curative
[11] = TCA alone 100 mg/kg p.o., no APAP, curative study

SMILES: CCCCCCCC/C=C/CCCCCCCCCCCCCC(=O)O [TCA, t-Tetracos-15-enoic acid]
- Serum ALP [1, 4]: 50.41 ± 3.07 μmole of p-nitrophenel formed/min/L
- Serum ALP, hepatoprotective activity percent [1, 4]: (21.27 ± 9.50) percent
- Serum GOT [1, 4]: 1079.43 ± 98.66 Units
- Serum GOT, hepatoprotective activity percent [1, 4]: (25.66 ± 7.72) percent
- Serum GPT [1, 4]: 2182.19 ± 137.86 Units
- Serum GPT, hepatoprotective activity percent [1, 4]: (22.86 ± 5.31) percent
- Serum Triglycerides [1, 4]: 14.72 ± 0.68 mg %
- Serum Triglycerides, hepatoprotective activity percent [1, 4]: (28.28 ± 8.27) percent
- Serum ALP [1, 5]: 46.23 ± 1.73 μmole of p-nitrophenel formed/min/L
- Serum ALP, hepatoprotective activity percent [1, 5]: (34.15 ± 5.39) percent
- Serum GOT [1, 5]: 880.10 ± 60.29 Units
- Serum GOT, hepatoprotective activity percent [1, 5]: (41.26 ± 4.72) percent
- Serum GPT [1, 5]: 1696.53 ± 48.31 Units
- Serum GPT, hepatoprotective activity percent [1, 5]: (41.57 ± 1.86) percent
- Serum Triglycerides [1, 5]: 13.47 ± 0.89 mg %
- Serum Triglycerides, hepatoprotective activity percent [1, 5]: (43.32 ± 10.80) percent
- Serum ALP [1, 6]: 41.44 ± 1.27 μmole of p-nitrophenel formed/min/L
- Serum ALP, hepatoprotective activity percent [1, 6]: (49.04 ± 3.94) percent
- Serum GOT [1, 6]: 619.36 ± 88.89 Units
- Serum GOT, hepatoprotective activity percent [1, 6]: (61.67 ± 6.96) percent
- Serum GPT [1, 6]: 1066.99 ± 118.14 Units
- Serum GPT, hepatoprotective activity percent [1, 6]: (65.82 ± 4.55) percent
- Serum Triglycerides [1, 6]: 12.34 ± 0.85 mg %
- Serum Triglycerides, hepatoprotective activity percent [1, 6]: (56.84 ± 10.23) percent
- Serum ALP [1, 7]: 35.08 ± 2.18 μmole of p-nitrophenel formed/min/L
- Serum ALP, hepatoprotective activity percent [1, 7]: (68.82 ± 6.78) percent
- Serum GOT [1, 7]: 310.53 ± 45.32 Units
- Serum GOT, hepatoprotective activity percent [1, 7]: (85.85 ± 4.25) percent
- Serum GPT [1, 7]: 539.60 ± 51.65 Units
- Serum GPT, hepatoprotective activity percent [1, 7]: (86.13 ± 1.99) percent
- Serum Triglycerides [1, 7]: 10.87 ± 0.69 mg %
- Serum Triglycerides, hepatoprotective activity percent [1, 7]: (74.48 ± 8.37) percent
- Serum ALP [1, 8]: 27.15 ± 2.92 μmole of p-nitrophenel formed/min/L
- Serum GOT [1, 8]: 106.86 ± 30.15 Units
- Serum GPT [1, 8]: 146.00 ± 32.15 Units
- Serum Triglycerides [1, 8]: 7.77 ± 0.56 mg %
- Serum ALP [2, 9]: 50.41 ± 3.07^NS μmole of p-nitophenol formed/min/L
- Serum ALP, hepatoprotective activity percent [2, 9]: (21.27 ± 9.50) percent
- Serum GOT [2, 9]: 1079.43 ± 98.66^NS Units
- Serum GOT, hepatoprotective activity percent [2, 9]: (25.66 ± 7.72) percent
- Serum GPT [2, 9]: 431.85 ± 25.52 Units
- Serum GPT, hepatoprotective activity percent [2, 9]: (49.67 ± 2.81) percent
- Serum Triglycerides [2, 9]: 14.72 ± 0.68^NS mg %
- Serum Triglycerides, hepatoprotective activity percent [2, 9]: (28.28 ± 8.27) percent
- Serum ALP ([2]; 25 mg/kg p.o. + APAP, curative): 46.23 ± 1.73 μmole of p-nitophenol formed/min/L
- Serum ALP, hepatoprotective activity percent ([2]; 25 mg/kg p.o. + APAP, curative): (34.15 ± 5.39) percent
- Serum GOT ([2]; 25 mg/kg p.o. + APAP, curative): 880.10 ± 60.29 Units
- Serum GOT, hepatoprotective activity percent ([2]; 25 mg/kg p.o. + APAP, curative): (41.26 ± 4.72) percent
- Serum GPT ([2]; 25 mg/kg p.o. + APAP, curative): 320.07 ± 41.33 Units
- Serum GPT, hepatoprotective activity percent ([2]; 25 mg/kg p.o. + APAP, curative): (67.52 ± 7.71) percent
- Serum Triglycerides ([2]; 25 mg/kg p.o. + APAP, curative): 13.47 ± 0.89^NS mg %
- Serum Triglycerides, hepatoprotective activity percent ([2]; 25 mg/kg p.o. + APAP, curative): (43.32 ± 10.80) percent
- Serum ALP ([2]; 50 mg/kg p.o. + APAP, curative): 41.44 ± 1.27 μmole of p-nitophenol formed/min/L
- Serum ALP, hepatoprotective activity percent ([2]; 50 mg/kg p.o. + APAP, curative): (49.04 ± 3.94) percent
- Serum GOT ([2]; 50 mg/kg p.o. + APAP, curative): 619.36 ± 88.89 Units
- Serum GOT, hepatoprotective activity percent ([2]; 50 mg/kg p.o. + APAP, curative): (61.67 ± 6.96) percent
- Serum GPT ([2]; 50 mg/kg p.o. + APAP, curative): 282.74 ± 32.96 Units
- Serum Triglycerides ([2]; 50 mg/kg p.o. + APAP, curative): 12.34 ± 0.85 mg %
- Serum Triglycerides, hepatoprotective activity percent ([2]; 50 mg/kg p.o. + APAP, curative): (56.84 ± 10.23) percent
- Serum ALP [2, 10]: 35.08 ± 2.18 μmole of p-nitophenol formed/min/L
- Serum ALP, hepatoprotective activity percent [2, 10]: (68.82 ± 6.78) percent
- Serum GOT [2, 10]: 310.53 ± 45.32 Units
- Serum GOT, hepatoprotective activity percent [2, 10]: (85.85 ± 4.25) percent
- Serum GPT [2, 10]: 235.59 ± 22.77 Units
- Serum GPT, hepatoprotective activity percent [2, 10]: (83.33 ± 1.99) percent
- Serum Triglycerides [2, 10]: 10.87 ± 0.69 mg %
- Serum Triglycerides, hepatoprotective activity percent [2, 10]: (74.48 ± 8.37) percent
- Serum ALP [2, 11]: 22.57 ± 2.95 μmole of p-nitophenol formed/min/L
- Serum GOT [2, 11]: 133.77 ± 20.84 Units
- Serum GPT [2, 11]: 129.65 ± 24.84 Units
- Serum Triglycerides [2, 11]: 7.43 ± 0.89 mg %
- Serum ALP [3]: 47.07 ± 2.98 μmole of p-nitrophenol formed/min/L
- Serum ALP, hepatoprotective activity percent [3]: (30.88 ± 7.77) percent
- Serum Bilirubin [3]: 0.56 ± 0.03 mg %
- Serum Bilirubin, hepatoprotective activity percent [3]: (39.49 ± 4.59) percent
